Like-named read-outs stand apart in the source and are kept apart here.
What was measured:
[1] = tested on: planktonic E. coli CFT073; assay type: cell-based, Escherichia coli
Description: The challenge plate of biocides, antibiotics and biosurfactant was made in a 96-well plate. Biocides were serially two-fold diluted in PBS and V9T14 biosurfactant was added to each well at the final concentration of 5 μL/mL. Antibiotics were similarly diluted in Muller-Hinton broth, while metals were diluted in MSVG. When prepared, each challenge plate had 7 sterility control, 8 growth control, 11 wells containing 5 μL/mL of V9T14 biosurfactant, 11 different concentrations of single biocide (or metals) and 11 different concentrations of biocide (or metals) associated with 5 μL/mL of V9T14 biosurfactant.
To define MBC of biocides, recovery plates were incubated at 37° C. for 24-48 h and the adsorbance (OD650 nm) was read in a microtiter plate reader.

[2] = tested on: P. aeruginosa PA14 biofilm; assay type: cell-based, Pseudomonas aeruginosa
Description: (§1) E. coli CFT073 and E. coli O157:H7 were grown on Luria Bertani agar (LB, EMD Chemicals Inc.), P. aeruginosa PA14 and S. aureus were grown on TSB agar. Susceptibility testing of metals was performed in Minimal Salts Vitamins Glucose (MSVG) according to Teitzel and Parsek (2003), while Polycide susceptibility testing was performed in Phosphate Buffered Saline (PBS).
(§2) AgNO3 (Sigma) and CuSO4 (Sigma) were dissolved in double distilled water (ddH2O) to 150 mM and 500 mM respectively. Polycide was diluted in PBS to 25%. Solutions were sterile filtered and stored at 4° C. Serial two-fold dilutions were performed to create the challenge plate.
(§3) Biofilms were grown in the Calgary Biofilm Device (CBD) as described above. Starting from cryogenic stock, the strain was streaked out twice on TSA, and an inoculum was prepared by suspending colonies from the secondary agar subculture in 0.9% saline to match a 1.0 McFarland standard. This standard inoculum was diluted 1/30 in LB broth.
(§4) 150 μL of this inoculum was transferred into each well of a 96-well plate, and the sterile peg lid of the CBD was inserted into the plate. The inoculated device was then incubated at 125 rpm, for 24 h at 37° C. and 95% relative humidity. In an alternative set of experiments, biofilms were grown for 48 h before silver exposure and spent medium was changed with fresh medium after 24 h.
Following this period of incubation, biofilms were rinsed once with 0.9% saline (200 μL/well) to remove loosely adherent planktonic cells. Biofilm formation was evaluated by breaking off four pegs from each device after it has been rinsed. Biofilms were disrupted from pegs into 200 μL/well of LB supplemented with 1% Tween 20 using an ultrasonic cleaner for a period of 10 min (Aquasonic model 250T, VWR Scientific, Mississauga, Canada) as described above. The disrupted biofilms were serially diluted in 0.9% saline and plated on LB agar for viable cell counting. An initial set of quality control assays were carried out to ascertain that the strain used in this study formed equivalent biofilm on the CBD pegs as described in Harrison (2008). […]

E. coli CFT073 biofilm = assay type: cell-based, Escherichia coli; conditions: for concentration for eradication of biofilm: 24 h exposure
Description: as §1
Extracted V9T14 biosurfactant was stored under the chemical hood providing solvent evaporation until dryness. The biosurfactant powder was homogenized using a porcelain mortar and a pestle. V9T14 was dissolved in PBS and pH was adjusted to 7.5 with 1 N NaOH. Volume was adjusted to match a final concentration of 5000 μg/mL.
as §2, §3, §4
Following this period of incubation, biofilms were rinsed once with 0.9% saline (200 μL/well) to remove loosely adherent planktonic cells. Biofilm formation was evaluated by breaking off four pegs from each device after it has been rinsed. Biofilms were disrupted from pegs into 200 μL/well of LB supplemented with 1% Tween 20 using an ultrasonic cleaner for a period of 10 min (Aquasonic model 250T, VWR Scientific, Mississauga, Canada) as described above. The disrupted biofilms were serially diluted in 0.9% saline and plated on LB agar for viable cell counting. An initial set of quality control assays were carried out to ascertain that the strain used in this study formed equivalent biofilm on the CBD pegs as described in Harrison (2008).
The challenge plate of biocides, antibiotics and biosurfactant was made in a 96-well plate. Biocides were serially two-fold diluted in PBS and V9T14 biosurfactant was added to each well at the final concentration of 5 μL/mL. Antibiotics were similarly diluted in Muller-Hinton broth, while metals were diluted in MSVG.
Biofilms that have been grown on lids of the CBD and rinsed once in 0.9% saline were inserted in the challenge plates. Following the exposure time at 37° C., biofilms were rinsed once with 0.9% saline (200 μL/well) and then placed in a microtiter “recovery” plate that contained 200 μL/well of neutralizing medium (TSB supplemented with 1% Tween 20, 2.0 g/L reduced glutathione, 1.0 g/L L-histidine, 1.0 g/L L-cysteine). The recovery plate was sonicated for a period of 10 min (Aquasonic model 250T, VWR Scientific, Mississauga, Canada). The disrupted biofilms were serially diluted in 0.9% saline and plated on the appropriate agar medium for viable cell counting. Plates were then incubated at 37° C. overnight and finally enumerated.

[3] = tested on: S. aureus ATCC 25923 biofilm; test: High-throughput susceptibility testing of CBD biofilm to biocides/metals with or without V9T14; assay type: cell-based, Staphylococcus aureus; conditions: 8 h exposure
Description: as §1, §2, §3
150 μL of this inoculum was transferred into each well of a 96-well plate, and the sterile peg lid of the CBD was inserted into the plate. […]
Following this period of incubation, biofilms were rinsed once with 0.9% saline (200 μL/well) to remove loosely adherent planktonic cells. Biofilm formation was evaluated by breaking off four pegs from each device after it has been rinsed. […]

Row | Compound | metal concentration needed with V9T14 relative to silver alone (fold less) ([1]; 5 μg/mL V9T14, 24 h) [fold] | concentration from which complete inhibition of growth was observed ([1]; silver alone, 24 h) [mM] | concentration required to eradicate the biofilm ([2]; silver alone, 8 h exposure) [mM] | concentration required to eradicate the biofilm ([2]; silver with 5 μg/mL V9T14, 8 h exposure) [mM] | enhancement of killing activity by presence of V9T14 (E. coli CFT073 biofilm; 2 h exposure, 3.750 mM silver, 5 μg/mL V9T14) | enhancement of killing activity by presence of V9T14 (E. coli CFT073 biofilm; 8 h exposure, 0.015 mM silver (p=0.03)) | silver concentration needed with V9T14 relative to silver alone (fold less) (E. coli CFT073 biofilm; biofilm reduced below detection limit) [fold] | concentration for eradication of biofilm (E. coli CFT073 biofilm; silver alone) [mM] | concentration for eradication of biofilm (E. coli CFT073 biofilm; silver with 5 μg/mL V9T14 added) [mM] | increase of killing efficacy by V9T14 (E. coli CFT073 biofilm; solution prepared 48 h before, 4 h exposure (p=0.0007)) | maximum increase of killing with V9T14 [2] | maximum reduction of viable cell count with V9T14 [3] | reduction of the concentration needed to bring biofilm below detectable count when V9T14 present [3]
1 | O=[N+]([O-])[O-].[Ag+] [silver, silver nitrate] | 64 | 7.5 | 0.469 | 0.117 | about 0.6 log10 | about 3.2 log10 | 258 | 7.5 | 0.029 | about 2.3 log10 | – | – | –
2 | O=S(=O)([O-])[O-].[Cu+2] [copper, cupric sulfate] | – | – | – | – | – | – | – | – | – | – | about 2.2 log10 | about 2.4 log10 | about 95%

Reference: patent US8377455B2, “Biosurfactant composition produced by a new Bacillus licheniforms strain, uses and products thereof” (priority 2008, dated 2013)
